Assay results as given in patent US10738028B2, “Spiro three-membered ring, spiro five-membered ring peptide deformylase inhibitor and use thereof in antibacteria and anti-tumor” (priority 2016, dated 2020).

Tests used:
Assay type in all cases: cell-based
[1] = tested on: Enterococcus faecalis (EFA); assay: MIC, two-fold agar dilution (CLSI), clinical isolates; conditions: for Anti-bacterial activity (MIC), strain EFA 15-1: clinical isolate EFA 15-1; for Anti-bacterial activity (MIC), strain EFA 15-2: clinical isolate EFA 15-2; for Anti-bacterial activity (MIC), strain EFA 15-3: clinical isolate EFA 15-3; for Anti-bacterial activity (MIC), strain EFA 15-4: clinical isolate EFA 15-4; for Anti-bacterial activity (MIC), strain EFA 15-5: clinical isolate EFA 15-5; for Anti-bacterial activity (MIC), strain EFA 15-6: clinical isolate EFA 15-6; for Anti-bacterial activity (MIC), strain EFA 15-9: clinical isolate EFA 15-9
Outline: (§1)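 Susceptibility was tested using CLSI two-fold agar dilution against the strains examined.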

[2] = tested on: Enterococcus faecium (EFM); assay: as above; conditions: for Anti-bacterial activity (MIC), strain EFM 15-1: clinical isolate EFM 15-1; for Anti-bacterial activity (MIC), strain EFM 15-2: clinical isolate EFM 15-2; for Anti-bacterial activity (MIC), strain EFM 15-3: clinical isolate EFM 15-3; for Anti-bacterial activity (MIC), strain EFM 15-4: clinical isolate EFM 15-4; for Anti-bacterial activity (MIC), strain EFM 15-5: clinical isolate EFM 15-5; for Anti-bacterial activity (MIC), strain EFM 15-6: clinical isolate EFM 15-6
Outline: as §1

[3] = tested on: Escherichia coli (including ESBLs, non-ESBLs); assay: as above; conditions: for Anti-bacterial activity (MIC), strain ECO+ 15-1: clinical isolate ECO+ 15-1; for Anti-bacterial activity (MIC), strain ECO+ 15-2: clinical isolate ECO+ 15-2; for Anti-bacterial activity (MIC), strain ECO+ 15-3: clinical isolate ECO+ 15-3; for Anti-bacterial activity (MIC), strain ECO+ 15-4: clinical isolate ECO+ 15-4; for Anti-bacterial activity (MIC), strain ECO− 15-1: clinical isolate ECO− 15-1; for Anti-bacterial activity (MIC), strain ECO− 15-2: clinical isolate ECO− 15-2; for Anti-bacterial activity (MIC), strain ECO− 15-3: clinical isolate ECO− 15-3; for Anti-bacterial activity (MIC), strain ECO− 15-4: clinical isolate ECO− 15-4
Outline: as §1

[4] = tested on: Moraxella catarrhalis (BCA); assay: as above; conditions: for Anti-bacterial activity (MIC), strain BCA 14-1: clinical isolate BCA 14-1; for Anti-bacterial activity (MIC), strain BCA 14-4: clinical isolate BCA 14-4; for Anti-bacterial activity (MIC), strain BCA 14-5: clinical isolate BCA 14-5; for Anti-bacterial activity (MIC), strain BCA 14-6: clinical isolate BCA 14-6; for Anti-bacterial activity (MIC), strain BCA 14-7: clinical isolate BCA 14-7; for Anti-bacterial activity (MIC), strain BCA 14-8: clinical isolate BCA 14-8; for Anti-bacterial activity (MIC), strain BCA 14-10: clinical isolate BCA 14-10
Outline: as §1

[5] = tested on: Streptococcus pneoumoniae (SPN); assay: as above; conditions: for Anti-bacterial activity (MIC), strain SPN 16-2: clinical isolate SPN 16-2; for Anti-bacterial activity (MIC), strain SPN 16-4: clinical isolate SPN 16-4
Outline: as §1

[6] = tested on: methicillin-resistant Staphylococcus aureus (MRSA); assay: as above; conditions: for Anti-bacterial activity (MIC), strain MRSA 15-1: clinical isolate MRSA 15-1; for Anti-bacterial activity (MIC), strain MRSA 15-3: clinical isolate MRSA 15-3; for Anti-bacterial activity (MIC), strain MRSA 15-4: clinical isolate MRSA 15-4
Outline: as §1

[7] = tested on: methicillin-resistant Staphylococcus epidermidis (MRSE); assay: as above; conditions: for Anti-bacterial activity (MIC), strain MRSE 15-1: clinical isolate MRSE 15-1; for Anti-bacterial activity (MIC), strain MRSE 15-2: clinical isolate MRSE 15-2; for Anti-bacterial activity (MIC), strain MRSE 15-3: clinical isolate MRSE 15-3; for Anti-bacterial activity (MIC), strain MRSE 15-7: clinical isolate MRSE 15-7
Outline: as §1

[8] = tested on: methicillin-sensitive Staphylococcus aureus (MSSA); assay: as above; conditions: for Anti-bacterial activity (MIC), strain MSSA 15-3: clinical isolate MSSA 15-3; for Anti-bacterial activity (MIC), strain MSSA 15-4: clinical isolate MSSA 15-4; for Anti-bacterial activity (MIC), strain MSSA 15-5: clinical isolate MSSA 15-5; for Anti-bacterial activity (MIC), strain MSSA 15-6: clinical isolate MSSA 15-6
Outline: as §1

[9] = tested on: methicillin-sensitive Staphylococcus epidermidis (MSSE); assay: as above; conditions: for Anti-bacterial activity (MIC), strain MSSE 15-3: clinical isolate MSSE 15-3; for Anti-bacterial activity (MIC), strain MSSE 15-4: clinical isolate MSSE 15-4; for Anti-bacterial activity (MIC), strain MSSE 15-5: clinical isolate MSSE 15-5; for Anti-bacterial activity (MIC), strain MSSE 15-6: clinical isolate MSSE 15-6
Outline: as §1

[10] = tested on: HCT-116 colorectal cancer cell line; assay: CCK-8 proliferation inhibition; conditions: Homo sapiens, HCT-116, 72 h, concentration of 30 μM; 72 hours; CCK-8; read-out: HCT116 inhibition rate/%
Outline: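 Proliferation over 72 hours of compound treatment was measured with CCK-8 against a 1‰ DMSO control.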

CCCC[C@H](CC(=O)NO)C(=O)N1CC2(CC2)C[C@H]1C(=O)Nc1cccnn1 [Example 48, (S)-5-((R)-2-(2-(hydroxyamino)-2-oxoethyl)hexanoyl)-N-(pyridazin-3-yl)-5-azaspiro[2.4]heptane-6-amide]
Anti-bacterial activity (MIC), strain EFA 15-1 [1]: > 32 µg/mL | Anti-bacterial activity (MIC), strain EFA 15-2 [1]: > 32 µg/mL | Anti-bacterial activity (MIC), strain EFA 15-3 [1]: > 32 µg/mL | Anti-bacterial activity (MIC), strain EFA 15-4 [1]: > 32 µg/mL | Anti-bacterial activity (MIC), strain EFA 15-5 [1]: > 32 µg/mL | Anti-bacterial activity (MIC), strain EFA 15-6 [1]: > 32 µg/mL | Anti-bacterial activity (MIC), strain EFA 15-9 [1]: 32 µg/mL | Anti-bacterial activity (MIC), strain EFM 15-1 [2]: > 32 µg/mL | Anti-bacterial activity (MIC), strain EFM 15-2 [2]: > 32 µg/mL | Anti-bacterial activity (MIC), strain EFM 15-3 [2]: > 32 µg/mL | Anti-bacterial activity (MIC), strain EFM 15-4 [2]: > 32 µg/mL | Anti-bacterial activity (MIC), strain EFM 15-5 [2]: 1 µg/mL | Anti-bacterial activity (MIC), strain EFM 15-6 [2]: 8 µg/mL | Anti-bacterial activity (MIC), strain ECO+ 15-1 [3]: 8 µg/mL | Anti-bacterial activity (MIC), strain ECO+ 15-2 [3]: > 32 µg/mL | Anti-bacterial activity (MIC), strain ECO+ 15-3 [3]: 32 µg/mL | Anti-bacterial activity (MIC), strain ECO+ 15-4 [3]: 32 µg/mL | Anti-bacterial activity (MIC), strain ECO− 15-1 [3]: > 32 µg/mL | Anti-bacterial activity (MIC), strain ECO− 15-2 [3]: > 32 µg/mL | Anti-bacterial activity (MIC), strain ECO− 15-3 [3]: > 32 µg/mL | Anti-bacterial activity (MIC), strain ECO− 15-4 [3]: > 32 µg/mL | Anti-bacterial activity (MIC), strain BCA 14-1 [4]: > 32 µg/mL | Anti-bacterial activity (MIC), strain BCA 14-4 [4]: > 32 µg/mL | Anti-bacterial activity (MIC), strain BCA 14-5 [4]: 8 µg/mL | Anti-bacterial activity (MIC), strain BCA 14-6 [4]: > 32 µg/mL | Anti-bacterial activity (MIC), strain BCA 14-7 [4]: 16 µg/mL | Anti-bacterial activity (MIC), strain BCA 14-8 [4]: 16 µg/mL | Anti-bacterial activity (MIC), strain BCA 14-10 [4]: > 32 µg/mL | Anti-bacterial activity (MIC), strain SPN 16-2 [5]: 8 µg/mL | Anti-bacterial activity (MIC), strain SPN 16-4 [5]: 8 µg/mL | Anti-bacterial activity (MIC), strain MRSA 15-1 [6]: 2 µg/mL | Anti-bacterial activity (MIC), strain MRSA 15-2 ([6]; clinical isolate MRSA 15-2): 8 µg/mL | Anti-bacterial activity (MIC), strain MRSA 15-3 [6]: 2 µg/mL | Anti-bacterial activity (MIC), strain MRSA 15-4 [6]: 8 µg/mL | Anti-bacterial activity (MIC), strain MRSE 15-1 [7]: 8 µg/mL | Anti-bacterial activity (MIC), strain MRSE 15-2 [7]: 8 µg/mL | Anti-bacterial activity (MIC), strain MRSE 15-3 [7]: 8 µg/mL | Anti-bacterial activity (MIC), strain MRSE 15-7 [7]: 8 µg/mL | Anti-bacterial activity (MIC), strain MSSA 15-3 [8]: 8 µg/mL | Anti-bacterial activity (MIC), strain MSSA 15-4 [8]: 8 µg/mL | Anti-bacterial activity (MIC), strain MSSA 15-5 [8]: 8 µg/mL | Anti-bacterial activity (MIC), strain MSSA 15-6 [8]: > 32 µg/mL | Anti-bacterial activity (MIC), strain MSSE 15-3 [9]: 8 µg/mL | Anti-bacterial activity (MIC), strain MSSE 15-4 [9]: 32 µg/mL | Anti-bacterial activity (MIC), strain MSSE 15-5 [9]: 8 µg/mL | Anti-bacterial activity (MIC), strain MSSE 15-6 [9]: 8 µg/mL | inhibition at 30 µM [10]: 20%

CCCC[C@H](CC(=O)NO)C(=O)N1CC2(CC2)C[C@H]1C(=O)Nc1ncccc1F [Example 49, (S)—N-(3-fluoropyridin-2-yl)-5-((R)-2-(2-(hydroxyamino)-2-oxoethyl)hexanoyl)-5-azaspiro[2.4]heptane-6-amide]
Anti-bacterial activity (MIC), strain EFA 15-1 [1]: > 32 µg/mL | Anti-bacterial activity (MIC), strain EFA 15-2 [1]: > 32 µg/mL | Anti-bacterial activity (MIC), strain EFA 15-3 [1]: > 32 µg/mL | Anti-bacterial activity (MIC), strain EFA 15-4 [1]: > 32 µg/mL | Anti-bacterial activity (MIC), strain EFA 15-5 [1]: > 32 µg/mL | Anti-bacterial activity (MIC), strain EFA 15-6 [1]: > 32 µg/mL | Anti-bacterial activity (MIC), strain EFA 15-9 [1]: > 32 µg/mL | Anti-bacterial activity (MIC), strain EFM 15-1 [2]: > 32 µg/mL | Anti-bacterial activity (MIC), strain EFM 15-2 [2]: > 32 µg/mL | Anti-bacterial activity (MIC), strain EFM 15-3 [2]: > 32 µg/mL | Anti-bacterial activity (MIC), strain EFM 15-4 [2]: > 32 µg/mL | Anti-bacterial activity (MIC), strain EFM 15-5 [2]: 2 µg/mL | Anti-bacterial activity (MIC), strain EFM 15-6 [2]: 2 µg/mL | Anti-bacterial activity (MIC), strain ECO+ 15-1 [3]: > 32 µg/mL | Anti-bacterial activity (MIC), strain ECO+ 15-2 [3]: > 32 µg/mL | Anti-bacterial activity (MIC), strain ECO+ 15-3 [3]: > 32 µg/mL | Anti-bacterial activity (MIC), strain ECO+ 15-4 [3]: > 32 µg/mL | Anti-bacterial activity (MIC), strain ECO− 15-1 [3]: > 32 µg/mL | Anti-bacterial activity (MIC), strain ECO− 15-2 [3]: > 32 µg/mL | Anti-bacterial activity (MIC), strain ECO− 15-3 [3]: > 32 µg/mL | Anti-bacterial activity (MIC), strain ECO− 15-4 [3]: > 32 µg/mL | Anti-bacterial activity (MIC), strain BCA 14-1 [4]: > 32 µg/mL | Anti-bacterial activity (MIC), strain BCA 14-4 [4]: > 32 µg/mL | Anti-bacterial activity (MIC), strain BCA 14-5 [4]: 4 µg/mL | Anti-bacterial activity (MIC), strain BCA 14-6 [4]: > 32 µg/mL | Anti-bacterial activity (MIC), strain BCA 14-7 [4]: > 32 µg/mL | Anti-bacterial activity (MIC), strain BCA 14-8 [4]: > 32 µg/mL | Anti-bacterial activity (MIC), strain BCA 14-10 [4]: > 32 µg/mL | Anti-bacterial activity (MIC), strain SPN 16-2 [5]: 4 µg/mL | Anti-bacterial activity (MIC), strain SPN 16-4 [5]: 4 µg/mL | Anti-bacterial activity (MIC), strain MRSA 15-1 [6]: 8 µg/mL | Anti-bacterial activity (MIC), strain MRSA 15-3 [6]: 16 µg/mL | Anti-bacterial activity (MIC), strain MRSA 15-4 [6]: 16 µg/mL | Anti-bacterial activity (MIC), strain MRSE 15-1 [7]: > 32 µg/mL | Anti-bacterial activity (MIC), strain MRSE 15-2 [7]: > 32 µg/mL | Anti-bacterial activity (MIC), strain MRSE 15-3 [7]: > 32 µg/mL | Anti-bacterial activity (MIC), strain MRSE 15-7 [7]: > 32 µg/mL | Anti-bacterial activity (MIC), strain MSSA 15-3 [8]: 16 µg/mL | Anti-bacterial activity (MIC), strain MSSA 15-4 [8]: 16 µg/mL | Anti-bacterial activity (MIC), strain MSSA 15-5 [8]: > 32 µg/mL | Anti-bacterial activity (MIC), strain MSSA 15-6 [8]: > 32 µg/mL | Anti-bacterial activity (MIC), strain MSSE 15-3 [9]: > 32 µg/mL | Anti-bacterial activity (MIC), strain MSSE 15-4 [9]: > 32 µg/mL | Anti-bacterial activity (MIC), strain MSSE 15-5 [9]: > 32 µg/mL | Anti-bacterial activity (MIC), strain MSSE 15-6 [9]: > 32 µg/mL | inhibition at 30 µM [10]: 8%
